# Molecular target: T1, endothelial lipase (EL) (Homo sapiens, UniProt Q9Y5X9)
# T1 construct: made in house; host or cells: recombinant CHO or HEK293 cell lines; concentrated conditioned medium used as enzyme solution
# T1 sequence (Q9Y5X9 21-500): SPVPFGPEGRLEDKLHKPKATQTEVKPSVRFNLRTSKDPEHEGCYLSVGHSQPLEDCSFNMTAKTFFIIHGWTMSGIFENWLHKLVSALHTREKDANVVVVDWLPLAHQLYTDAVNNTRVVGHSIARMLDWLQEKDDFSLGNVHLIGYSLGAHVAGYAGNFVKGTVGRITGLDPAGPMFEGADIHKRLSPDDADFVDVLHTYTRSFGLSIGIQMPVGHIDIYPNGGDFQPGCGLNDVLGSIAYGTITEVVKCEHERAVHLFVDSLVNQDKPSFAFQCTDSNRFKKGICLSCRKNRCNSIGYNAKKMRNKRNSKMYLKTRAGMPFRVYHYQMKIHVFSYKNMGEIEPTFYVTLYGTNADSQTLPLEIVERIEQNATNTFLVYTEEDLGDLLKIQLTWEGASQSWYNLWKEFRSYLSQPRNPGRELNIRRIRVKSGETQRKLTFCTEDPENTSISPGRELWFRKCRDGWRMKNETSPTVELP
# Test: EL inhibition assay (endothelial lipase activity, fluorescent Bodipy phospholipid substrate)
# Assay type: biochemical
# Conditions: 37° C., 90 minutes; enzyme from conditioned medium of recombinant cell lines (CHO, HEK293)
# Experimental: The activity of the compounds of the invention of the formula I was tested in the following enzyme assay system: […]
# EL is released as secretory protein in high concentration into cell culture medium (conditioned medium) by recombinant cell lines (CHO, HEK293). This is employed as enzyme solution after concentration.
# The phospholipase-specific substrate 1,2-bis(4,4-difluoro-5,7-dimethyl-4-bora-3a,4a-diaza-s-indacene-3-undecanoyl)-sn-glycero-3-phosphocholine, (manufacturer Molecular Probes) is used to characterize the enzymatic activity of endothelial lipase and the effect of inhibitors. Hydrolysis of the A1 ester linkage of this phospholipid by the enzyme liberates a fatty acid labeled by the fluorescent dye Bodipy which can be detected after separation by thin-layer chromatography on an HPTLC plate (silica gel 60, Merck) or directly in the reaction vessel by measuring the fluorescence.
# The substrate solution is prepared by dissolving 100 μg of 1,2-bis(4,4-difluoro-5,7-dimethyl-4-bora-3a,4a-diaza-s-indacene-3-undecanoyl)-sn-glycero-3-phosphocholine (manufacturer Molecular Probes) in 100 μl DMSO and taking it up in 2.4 mg of tripalmitin (Sigma) in 393 μl chloroform which contains 20 mg/ml DOP-choline (1,2-dioleoyl-sn-glycero-3-phosphocholine). 39.3 μl of this lipid mixture are transferred into a fresh reaction vessel and the solvent is evaporated. The lipid mixture is dissolved in 4 ml of 200 mM TRIS-HCl, 150 mM sodium chloride, pH=7.4, by sonication twice. The subsequent enzymic reaction takes place at 37° C. for 90 minutes. For this purpose, 20 μl of the substrate solution are incubated with 2 μl of inhibitor of appropriate concentration (dissolved in 10% DMSO, 10% strength DMSO solution is used as control) and 2 μl of enzyme solution (conditioned medium). Then 4 μl of the assay mixture are loaded onto an HPTLC plate (silica gel 60, Merck), and the liberated fluorescent dye is separated for detection with an eluent (diethyl ether:petroleum benzine:acetic acid [78:22:1]). After evaporation of the eluent, the plate is read in a fluorescence scanner. An increased release of the fluorescent dye in the uninhibited reaction is to be observed as a measure of the enzymic activity.
# The enzymatic activity is reduced as a function of the inhibitor concentration used, and the inhibitor concentration at which a half-maximum enzymic activity is observed is called IC50.
row,Compound,IC50
1,Cc1ccccc1CNC(=O)n1oc(=O)c(C(C)C)c1C [Example 6],0.028 µM
2,Cc1c(C(C)C)c(=O)on1C(=O)NCc1cc2ccccc2s1 [Example 8],3.2 µM
3,Cc1c(C(C)C)c(=O)on1C(=O)NC1CCc2ccccc21 (stereo not drawn) [Example 10],0.06 µM
4,Cc1ccc(CNC(=O)n2oc(=O)c(C(C)C)c2C)cc1C [Example 16],0.004 µM
5,Cc1c(C(C)C)c(=O)on1C(=O)NCc1cccs1 [Example 18],14.1 µM
6,Cc1c(C)n(C(=O)NC2CCc3ccccc32)oc1=O (stereo not drawn) [Example 31],0.1 µM
7,O=C(N[C@H]1CCc2ccccc21)n1oc(=O)cc1C1CC1 [Example 44],0.5 µM

# Results, then the compound that gave them:
row,IC50,Compound
1,0.9 µM,Cc1ccc(CNC(=O)n2oc(=O)c(C(C)C)c2C)cc1 [Example 7]
2,0.009 µM,Cc1ccc(CNC(=O)n2oc(=O)c3c2CCCC3)cc1C [Example 25]
3,0.035 µM,Cc1ccc(CNC(=O)n2oc(=O)c3c2CCCC3)cc1 [Example 26]
4,0.001 µM,Cc1cccc(C)c1CNC(=O)n1oc(=O)c2c1CCCC2 [Example 39]
5,0.053 µM,Cc1cccc(CNC(=O)n2oc(=O)c3c2CCCC3)c1 [Example 40]

# Source: patent US9029400B2, “5-oxoisoxazoles as inhibitors of lipases and phospholipases” (Sanofi, priority 2007, dated 2015)
